Assays:
p21 gene [1] = assay: p21 mRNA expression by RT-qPCR in Ku-7-LG cells; type: cell-based, human; conditions: 10 nM
Experimental: (§1) Ku-7-LG and T24 cells were transfected with the indicated saRNA at a final concentration of 10 nM for 3 days. After transfection, the RNA was extracted with the Qiagen RNeasy kit. After reverse transcription, the ABI 7500 fast real-time PCR system was used for qPCR amplification. The GAPDH gene was amplified as an internal reference. […] Dashed line indicates duplex Rag1-40 with no chemical modification in comparison, and the values above the line indicate stronger activity. The control was blank transfection without oligonucleotide. dsCon2 is transfected with a double-stranded scramble RNA. The value of the ordinate represents the mean±SD of 2 repeated treatments.
(§2) The control and dsCon2 were blank transfection and scramble dsRNA transfection, respectively. The values in the ordinate represent the mean±SD of 2 repeated treatments.
(§3) Human bladder cancer cells Ku-7-LG (ATCC), J82 (ATCC) and T24 (ATCC) were cultured in McCoy medium (Gibco) comprising 10% calf serum (Sigma-Aldrich) and 1% penicillin/Streptomycin (Gibco). Cells were cultured at 37° C. under 5% CO2. Ku-7-LG, J82 and T24 cells were plated into 12-well plates at 10×10^4 cells per well, transfected with the small RNA at a concentration of 10 nM (unless otherwise specified) for three days, using RNAiMax (Invitrogen, Carlsbad, CA) according to the manufacturer's instructions. Two replicate wells were set for each treatment.
(§4) After transfection, the medium was discarded and to each well 500 μl cell lysate was added and incubated at room temperature for 5 minutes. RNA was extracted with the Qiagen RNeasy kit, and after reverse transcription, qPCR analysis was performed on the ABI 7500 Fast Real-time PCR system (Applied Biosystems). Each sample was amplified in 3 replicate wells.
(§5) The PCR reaction conditions are: 95° C. for 30 seconds, 95° C. for 5 seconds, 60° C. for 30 seconds, and 40 cycles of amplification. The GAPDH gene was amplified as an internal reference at the same time. p21 was amplified with the p21F1/R1 primer pair, and the specific sequences of the amplification primers are shown in Table 1.
(§6) In order to calculate the expression value (Erel) of p21 (target gene) of a saRNA transfection sample relative to the control treatment, Formula 1 is used to input the Ct values of the target gene and the internal reference gene for calculation.
(§7) wherein, CtTm is the Ct value of the target gene from the control treatment sample; CtTs is the Ct value of the target gene from the saRNA treated sample; CtRm is the Ct value of the internal reference gene from the control treatment sample; and CtRs is the Ct value of the internal reference gene from the saRNA treated sample.
(§8) The main purpose of introducing chemical modifications to regulatory oligonucleotides of a gene is to improve their pharmaceutical properties, including enhancing in vivo stability and mitigating off-target effects (e.g., sequence-dependent targeting of unrelated genes, sequence-dependent or independent immune stimulation), while maintaining their gene regulatory capacity (gene knockdown or activation). To assess the effect of chemical modification on the RNAa activity of saRNA on the p21 gene, 10 nM unmodified (Rag1-40) and modified (Rag1-40-1 to Rag1-40-34) duplexes were transfected into Ku-7-LG and T24 cells, respectively. After 72 hours, the mRNA expression level of p21 was assessed by RT-qPCR. All duplexes induced p21 mRNA expression in all […] at least double that of the control.
(§9) In order to further evaluate the expression level of p21 mRNA after the different durations of treatment by the chemically modified saRNA duplexes, two saRNAs (RAG1-40-31 and RAG1-40-53) were randomly selected from the above chemically modified saRNA duplexes for detection. RAG1-40-31 and RAG1-40-53 were transfected into Ku-7-LG and T24 cells at a final concentration of 10 nM, for 1, 2, 3, 4, 7 and 9 days, respectively. Each treatment was set up in duplicate. […]

p21 gene [2] = assay: p21 mRNA expression by RT-qPCR in T24 cells; type: cell-based, human; conditions: 10 nM
Experimental: as §1, §2, §3, §4, §5, §6, §7, §8, §9

Ku-7-LG cells = assay: Cell cycle detection by flow cytometry in Ku-7-LG cells; type: cell-based, human; conditions: 48 hours
Experimental: RAG1-40-31 and RAG1-40-53 were transfected into Ku-7-LG cells at the final concentrations of 0.1, 1, 10 and 50 nM, and the transfection duration was 48 hours. Two replicate wells were used for each treatment. After transfection, the cell cycle was analyzed by flow cytometry, and the collected data were analyzed by MotFit software.
After transfection, the supernatant was discarded to collect cells. To each well 500 μL PBS was added for one wash and then discarded. To each well 100 μL trypsin was further added. 900 μL medium was added to stop digestion before transferring to a 1.5 mL centrifuge tube. All the cells were collected through centrifugation (400 rcf, 5 min) and counted (2×10^5 cells/200 μL PBS). Cold 70% absolute ethanol was added before incubation overnight at 4° C. After washing twice with PBS, 200 μL Krishan buffer was added before incubation at 4° C. for 1 hour. After washing twice with PBS, the supernatant was discarded and 200 μL PBS was added for cell re-suspension, then the cells were transferred to a 96-well plate and analyzed by flow cytometer. The collected data were analyzed with MotFit software.
In order to study the mechanism of cellular proliferation suppression, change in cell cycle was analyzed using flow cytometry in this example. Randomly selected saRNAs RAG1-40-31 and RAG1-40-53 were transfected into Ku-7-LG cells at final concentrations of 0.1, 1, 10 and 50 nM, respectively, for 48 hours. Each treatment was set in duplicate. Cell cycle was detected and analyzed as described in the general protocol above.

RNase A = biological target: T1, RNase A (Bos taurus, UniProt P61823)
T1 sequence (P61823 27-150): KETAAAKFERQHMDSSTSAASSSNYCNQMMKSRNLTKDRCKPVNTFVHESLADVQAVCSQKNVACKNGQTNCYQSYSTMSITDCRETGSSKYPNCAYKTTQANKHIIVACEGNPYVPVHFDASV

Substance: RAG1-40-31: saRNA duplex: sense fCfCAACUCAUUCUCCAAG*U*C (SEQ ID NO 16); antisense U*A*fCfUfUGGAGAAfUGAGfUfUGG*fC*A (SEQ ID NO 12) (sense CCAACUCAUUCUCCAAGUC; antisense UACUUGGAGAAUGAGUUGGCA; 2'-F and phosphorothioate modifications; modified_base (1)..(2) (1,2)=2′-fluoro; modified_base (17)..(19) (17,18,19)=phosphorothioate (PS) backbone modification; modified_base (2)..(21) (2,3,19,20,21)=phosphorothioate (PS) backbone modification; modified_base (3)..(20) (3,4,5,12,16,17,20)=2′-fluoro)
- increase of expression level of p21 mRNA compared with the control group (p21 gene [1]; 1 day): 1.3 fold
- increase of expression level of p21 mRNA compared with the control group (p21 gene [1]; 2 days): 11.4 fold
- increase of expression level of p21 mRNA compared with the control group (p21 gene [1]; 3 days): 8.7 fold
- increase of expression level of p21 mRNA compared with the control group (p21 gene [1]; 4 days): 6.1 fold
- increase of expression level of p21 mRNA compared with the control group (p21 gene [1]; 7 days): 2.6 fold
- increase of expression level of p21 mRNA compared with the control group (p21 gene [1]; 9 days): 3.8 fold
- increase of expression level of p21 mRNA compared with the control group (p21 gene [2]; 1 day): 2.1 fold
- increase of expression level of p21 mRNA compared with the control group (p21 gene [2]; 2 days): 3.7 fold
- increase of expression level of p21 mRNA compared with the control group (p21 gene [2]; 3 days): 4.7 fold
- RNA activation activity (p21 mRNA), in words (p21 gene [2]; 72 hours, compared with unmodified Rag1-40 unless worded otherwise): reduced activity
- increase of expression level of p21 mRNA compared with the control group (p21 gene [2]; 4 days): 3.3 fold
- increase of expression level of p21 mRNA compared with the control group (p21 gene [2]; 7 days): 1.2 fold
- increase of expression level of p21 mRNA compared with the control group (p21 gene [2]; 9 days): 1.3 fold
- percentage of cells in DNA anaphase/mitosis (G2/M) (Ku-7-LG cells; 0.1 nM): 6%
- percentage of cells in DNA replication phase (S phase) (Ku-7-LG cells; 0.1 nM): 32%
- percentage of cells in prophase of DNA synthesis (G0/G1) (Ku-7-LG cells; 0.1 nM): 62%
- percentage of cells in DNA anaphase/mitosis (G2/M) (Ku-7-LG cells; 1 nM): 9%
- percentage of cells in DNA replication phase (S phase) (Ku-7-LG cells; 1 nM): 22%
- percentage of cells in prophase of DNA synthesis (G0/G1) (Ku-7-LG cells; 1 nM): 69%
- percentage of cells in DNA anaphase/mitosis (G2/M) (Ku-7-LG cells; 10 nM): 8%
- percentage of cells in DNA replication phase (S phase) (Ku-7-LG cells; 10 nM): 11%
- percentage of cells in prophase of DNA synthesis (G0/G1) (Ku-7-LG cells; 10 nM): 81%
- percentage of cells in DNA anaphase/mitosis (G2/M) (Ku-7-LG cells; 50 nM): 13%
- percentage of cells in DNA replication phase (S phase) (Ku-7-LG cells; 50 nM): 6%
- percentage of cells in prophase of DNA synthesis (G0/G1) (Ku-7-LG cells; 50 nM): 81%
- degradation of duplex at 96 hours (RNase A): little or no signs of degradation

— US20240301409A1, “Chemically Modified Small Activating RNA” (RACTIGEN THERAPEUTICS, priority 2021, published 2024)
